In patent US10662204B2 (PFIZER INC., priority 2018, dated 2020):

How the values were obtained:
[1] = molecular target: T1, GDP-loaded KRAS (1-169) G12C, C51S, C80L, C118S (Homo sapiens, UniProt P01116, C118S/C51S/C80L/G12C); assay: Mass Spectrometry Reactivity Assay (MSRA): covalent adduct of compound and KRAS G12C, Percent Modification; format: binding; conditions: for MSRA (% modification) 10 μM 0.25 hr / MSRA (% modification) 10 μM 0.50 hr: 10 μM compound; for MSRA (% modification) 5.0 μM 0.017 hr / MSRA (% modification) 5.0 μM 0.25 hr: 5.0 μM compound
T1 construct: GDP-loaded KRAS (1-169) G12C, C51S, C80L, C118S
Method in brief: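 Covalent labelling is measured by intact mass: deconvoluted modified and unmodified peak intensities yield percent modification. Compound, usually 5 μM or 10 μM final, reacts at room temperature with 5 μM GDP-bound KRAS G12C (1-169, C51S/C80L/C118S) in Hepes pH 7.5/NaCl/glycerol, sampled at 1, 15, 30, 60 min.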

KRAS G12C = KRAS G12C (Homo sapiens, UniProt P01116, G12C); assay: Cell Activity Assay: accumulation of GDP-bound KRAS G12C in MIAPaCa-2 cells (Raf-1 RBD capture, MSD readout); format: cell-based; set-up: endogenous in cells; host or cells: MIAPaCa-2; conditions: 6 hours, assay limit is 30.00
Method in brief: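 IC50 came from a 4-parameter fit of Ras signal normalized between DMSO and full-inhibition controls. Readout: lysate GTP-Ras bound to immobilized Raf-1 RBD, quantified with pan-Ras antibody and MSD electrochemiluminescence. Lysates derived from MIAPaCa-2 cells treated 6 h with serially diluted compound, 0.3% DMSO.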

MSRA (% modification) 10 μM 0.25 hr [1] [%]	MSRA (% modification) 10 μM 0.50 hr [1] [%]	IC50 (KRAS G12C) [µM]	MSRA (% modification) 5.0 μM 0.017 hr [1] [%]	MSRA (% modification) 5.0 μM 0.25 hr [1] [%]	SMILES
72	76	0.559	–	–	C=CC(=O)N1CCN(c2nc(OCCN(C)C)nc3c(Oc4c(Cl)c(C)cc5[nH]ncc45)nccc23)CC1 [Example 05E, 1-(4-{8-[(5-chloro-6-methyl-1H-indazol-4-yl)oxy]-2-[2-(dimethylamino)ethoxy]pyrido[3,4-d]pyrimidin-4-yl}piperazin-1-yl)prop-2-en-1-one]
–	79	0.171	–	–	C=CC(=O)N1CCN(c2ncnc3c(Oc4c(C)c(Cl)cc5[nH]ncc45)nc(Cl)cc23)CC1 [Example 31A, 1-(4-{6-chloro-8-[(6-chloro-5-methyl-1H-indazol-4-yl)oxy]pyrido[3,4-d]pyrimidin-4-yl}piperazin-1-yl)prop-2-en-1-one]
–	37	6.69	–	–	C=CC(=O)N1CCN(c2ncnc3c(Cc4c(C)ccc5[nH]ncc45)cccc23)CC1 [Example 01D, 1-(4-{8-[(5-methyl-1H-indazol-4-yl)methyl]quinazolin-4-yl}piperazin-1-yl)prop-2-en-1-one]
–	13	> 30	–	–	C=CC(=O)N1CCN(c2nc(NC3CNC(=O)C3)nc3c(Oc4c(C)ccc5[nH]ncc45)cccc23)CC1 (stereo not drawn) [Example 15F, 4-({4-(4-acryloylpiperazin-1-yl)-8-[(5-methyl-1H-indazol-4-yl)oxy]quinazolin-2-yl}amino)pyrrolidin-2-one]
–	40	2.26	–	–	C=CC(=O)N1CCN(c2ncnc3c(Oc4c(Cl)ccc5[nH]ncc45)nc(C(F)(F)F)cc23)CC1 [Example 04A]
–	–	0.168	19	–	C=CC(=O)N1CCN(c2nc(O[C@@H]3CN(C)C[C@H]3OCC(F)F)nc3c(Oc4c(Cl)c(F)cc5[nH]ncc45)nccc23)CC1 (racemic) [Example 32I, rac-1-[4-(8-[(5-chloro-6-fluoro-1H-indazol-4-yl)oxy]-2-{[(3R,4R)-4-(2,2-difluoro-ethoxy)-1-methyl-pyrrolidin-3-yl]oxy}pyrido [3,4-d]pyrimidin-4-yl)piperazin-1-yl]prop-2-en-1-one]
–	67	0.247	–	–	C=CC(=O)N1CCN(c2ncnc3c(Oc4c(Cl)c(Cl)cc5[nH]ncc45)nc(Cl)cc23)CC1 [Example 30A, 1-(4-{6-chloro-8-[(5,6-dichloro-1H-indazol-4-yl)oxy]pyrido[3,4-d]pyrimidin-4-yl}piperazin-1-yl)prop-2-en-1-one]
77	–	0.285	–	66	C=CC(=O)N1CCN(c2nc(OCc3cccnc3)nc3c(Oc4c(Cl)c(F)cc5[nH]ncc45)nccc23)CC1 [Example 07H, 1-(4-{8-[(5-chloro-6-fluoro-1H-indazol-4-yl)oxy]-2-(pyridin-3-ylmethoxy)pyrido[3,4-d]pyrimidin-4-yl}piperazin-1-yl)prop-2-en-1-one]
–	43	7.28	–	–	C=CC(=O)N1CCN(c2nc(NCC3CC(=O)N(C)C3)nc3c(Oc4c(C)ccc5[nH]ncc45)cccc23)CC1 (stereo not drawn) [Example 04F, 4-[({4-(4-acryloylpiperazin-1-yl)-8-[(5-methyl-1H-indazol-4-yl)oxy]quinazolin-2-yl}amino)methyl]-1-methylpyrrolidin-2-one]
–	10	15.6	–	–	C=CC(=O)N1CCN(c2ncnc3c(Oc4c(Cl)c(C)cc5[nH]ncc45)nccc23)C[C@@H]1C [Example 22A, 1-[(2S)-4-{8-[(5-chloro-6-methyl-1H-indazol-4-yl)oxy]pyrido[3,4-d]pyrimdin-4-yl}-2-methylpiperazin-1-yl]prop-2-en-1-one]
–	74	0.681	–	–	C=CC(=O)N1CCN(c2ncnc3c(Oc4c(Cl)c(F)cc5[nH]ncc45)nc(C#N)cc23)CC1 [Example 32A, 4-(4-acryloylpiperazin-1-yl)-8-[(5-chloro-6-fluoro-1H-indazol-4-yl)oxy]pyrido[3,4-d]pyrimidine-6-carbonitrile]
–	10	7.5	–	–	C=CC(=O)N1CCN(c2ncnc3c(Oc4c(C)ccc5[nH]ncc45)nccc23)[C@@H](C)C1 [Example 10A, 1-[(3S)-3-methyl-4-{8-[(5-methyl-1H-indazol-4-yl)oxy]pyrido[3,4-d]pyrimidin-4-yl}piperazin-1-yl]prop-2-en-1-one]
–	18	5.92	–	–	C=CC(=O)N1CCN(c2ncnc3c(Oc4c(C)ccc5[nH]ncc45)cccc23)CC1 [Example 01C, 1-(4-{8-[(5-methyl-1H-indazol-4-yl)oxy]quinazolin-4-yl}piperazin-1-yl)prop-2-en-1-one]
–	–	0.008	83	–	C#CCN1C[C@@H](OC)[C@H](Oc2nc(N3CCN(C(=O)C=C)CC3)c3cc(Cl)nc(Oc4c(Cl)c(F)cc5[nH]ncc45)c3n2)C1 [Example 40G, 1-[4-(6-chloro-8-[(5-chloro-6-fluoro-1H-indazol-4-yl)oxy]-2-{[(3R,4R)-4-methoxy-1-(prop-2-yn-1-yl)pyrrolidin-3-yl]oxy}pyrido[3,4-d]pyrimidin-4-yl)piperazin-1-yl]prop-2-en-1-one]
–	–	0.059	15	–	C=CC(=O)N1CCN(c2nc(O[C@@H]3CN(C)CC[C@H]3C)nc3c(Oc4c(Cl)c(F)cc5[nH]ncc45)nccc23)CC1 (racemic) [Example 53I, rac-1-[4-(8-[(5-chloro-6-fluoro-1H-indazol-4-yl)oxy]-2-{[(3S,4R)-1,4-dimethyl-piperidin-3-yl]oxy}pyrido [3,4-d]pyrimidin-4-yl)piperazin-1-yl]prop-2-en-1-one]
–	20	29.1	–	–	C=CC(=O)N1CCN(c2nc(NCC3CCC(=O)N3)nc3c(Oc4c(C)ccc5[nH]ncc45)cccc23)CC1 (stereo not drawn) [Example 12F, 5-[({4-(4-acryloylpiperazin-1-yl)-8-[(5-methyl-1H-indazol-4-yl)oxy]quinazolin-2-yl}amino)methyl]pyrrolidin-2-one]
–	–	1.07	–	81	C=CC(=O)N1CCN(c2nc(OCC3CCN(C(C)=O)C3)nc3c(Oc4c(Cl)c(F)cc5[nH]ncc45)nccc23)CC1 (stereo not drawn) [Example 05J, 1-(4-{2-[(1-acetylpyrrolidin-3-yl)methoxy]-8-[(5-chloro-6-fluoro-1H-indazol-4-yl)oxy]pyrido[3,4-d]pyrimidin-4-yl}piperazin-1-yl)prop-2-en-1-one]
–	–	0.155	24	–	C=CC(=O)N1CCN(c2nc(O[C@@H]3CN(C)C[C@H]3OC)nc3c(Oc4c(Cl)c(F)cc5[nH]ncc45)nccc23)C[C@H]1C [Example 35I, 1-[(2R)-4-(8-[(5-chloro-6-fluoro-1H-indazol-4-yl)oxy]-2-{[(3R,4R)-4-methoxy-1-methyl-pyrrolidin-3-yl]oxy}pyrido [3,4-d]pyrimidin-4-yl)-2-methyl-piperazin-1-yl]prop-2-en-1-one]
–	7	22.2	–	–	C=CC(=O)N1CCN(c2ncnc3c(Oc4c(C)ccc5[nH]nc(Cl)c45)nccc23)CC1 [Example 16C, 1-(4-{8-[(3-chloro-5-methyl-1H-indazol-4-yl)oxy]pyrido[3,4-d]pyrimidin-4-yl}piperazin-1-yl)prop-2-en-1-one]
–	35	9.34	–	–	C=CC(=O)N1CCN(c2nc(NCc3nc(C)c[nH]3)nc3c(Oc4c(C)ccc5[nH]ncc45)cccc23)CC1 [Example 01F, 1-[4-(2-{[(4-methyl-1H-imidazol-2-yl)methyl]amino}-8-[(5-methyl-1H-indazol-4-yl)oxy]quinazolin-4-yl)piperazin-1-yl]prop-2-en-1-one]
21	–	5.45	–	–	C=CC(=O)N1CCN(c2nc(OCCN3CCCC3)nc3c(Oc4c(C)ccc5[nH]ncc45)nccc23)CC1 [Example 12B, 1-(4-{8-[(5-methyl-1H-indazol-4-yl)oxy]-2-[2-(pyrrolidin-1-yl)ethoxy]pyrido[3,4-d]pyrimidin-4-yl}piperazin-1-yl)prop-2-en-1-one]
–	–	0.638	–	33	C=CC(=O)N1CCN(c2nc(N3C[C@@](C)(O)[C@@H]3C)nc3c(Oc4c(Cl)c(F)cc5[nH]ncc45)nccc23)CC1 [Example 06J, 1-(4-{8-[(5-chloro-6-fluoro-1H-indazol-4-yl)oxy]-2-[(2S,3R)-3-hydroxy-2,3-dimethylazetidin-1-yl]pyrido[3,4-d]pyrimidin-4-yl}piperazin-1-yl)prop-2-en-1-one]
79	–	0.401	–	78	C=CC(=O)N1CCN(c2nc(OCC3CCC(=O)N3C)nc3c(Oc4c(Cl)c(F)cc5[nH]ncc45)nc(Cl)cc23)CC1 (stereo not drawn) [Example 14G, 5-[({4-(4-acryloylpiperazin-1-yl)-6-chloro-8-[(5-chloro-6-fluoro-1H-indazol-4-yl)oxy]pyrido[3,4-d]pyrimidin-2-yl}oxy)methyl]-1-methylpyrrolidin-2-one]
–	–	0.026	53	–	C=CC(=O)N1CCN(c2nc(O[C@@H]3COC[C@H]3N(C)C)nc3c(Oc4c(Cl)c(F)cc5[nH]ncc45)nc(Cl)cc23)CC1 (racemic) [Example 30G, rac-1-[4-(6-chloro-8-[(5-chloro-6-fluoro-1H-indazol-4-yl)oxy]-2-{[(3S,4R)-4-(dimethylamino)oxolan-3-yl]oxy}pyrido[3,4-d]pyrimidin-4-yl)piperazin-1-yl]prop-2-en-1-one]
